Measured values published in PubChem BioAssay AID192 (DTP/NCI, 2004).
“And” between values parts separate entries of the source, which are not always exact repeats. Equal entries are not always repeated. Inconclusive results and toxic doses are left out. How the source made its calls: active means survival T/C of 150% or more; inactive means T/C below 125% in these data.

System: BDF1 mice, B16 melanoma ip, median survival T/C
Test: NCI In Vivo Anticancer Drug Screen. Data for tumor model B16 Melanoma (intraperitoneal) in B6D2F1 (BDF1) mice
Details: endpoint: median survival time, higher = longer survival
Procedure, shortened: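 Tumor-bearing mice received test compound or vehicle. Survival or tumor size was then measured in both groups. The treated-group figure was divided by the control-group figure.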

[1] = dose: 12.5 mg/kg/injection, schedule: Q01DX009 (ip), vehicle: saline
[2] = dose: 25.0 mg/kg/injection, schedule: Q01DX009 (ip), vehicle: saline
[3] = dose: 50.0 mg/kg/injection, schedule: Q01DX009 (ip), vehicle: saline
[4] = dose: 100.0 mg/kg/injection, schedule: Q01DX009 (ip), vehicle: Klucel (hydroxypropylcellulose) (HPC)
[5] = dose: 200.0 mg/kg/injection, schedule: Q01DX009 (ip), vehicle: Klucel (hydroxypropylcellulose) (HPC)
[6] = dose: 400.0 mg/kg/injection, schedule: Q01DX009 (ip), vehicle: Klucel (hydroxypropylcellulose) (HPC)
[7] = dose: 50.0 mg/kg/injection, schedule: Q01DX009 (ip), vehicle: saline with Tween-80
[8] = dose: 100.0 mg/kg/injection, schedule: Q01DX009 (ip), vehicle: saline with Tween-80
[9] = dose: 200.0 mg/kg/injection, schedule: Q01DX009 (ip), vehicle: saline with Tween-80
[10] = dose: 12.5 mg/kg/injection, schedule: Q01DX009 (ip), vehicle: saline with Tween-80
[11] = dose: 25.0 mg/kg/injection, schedule: Q01DX009 (ip), vehicle: saline with Tween-80

Measured: T/C

O=C1c2cc(Br)cc(Br)c2NCCCC1(Br)Br
inactive: dose: 75.0 mg/kg/injection, schedule: Q04DX003 (ip), vehicle: Klucel (hydroxypropylcellulose) (HPC) 102 % of control | dose: 150.0 mg/kg/injection, schedule: Q04DX003 (ip), vehicle: Klucel (hydroxypropylcellulose) (HPC) 95 % of control | dose: 300.0 mg/kg/injection, schedule: Q04DX003 (ip), vehicle: Klucel (hydroxypropylcellulose) (HPC) 96 % of control

COC1C=CC23c4cc5c(cc4C(O)OC2CN(C)C3C1)OCO5 (stereo not drawn)
inactive: dose: 6.25 mg/kg/injection, schedule: Q01DX009 (ip), vehicle: saline 101 % of control and 109 % of control | [1] 98 % of control and 108 % of control | [2] 112 % of control and 116 % of control | [3] 112 % of control

O=C(O)CSCCc1ccccc1
inactive: [4] 96 % of control | [5] 93 % of control | [6] 100 % of control

Cc1cc(Cl)ccc1NC(=O)c1ccc([N+](=O)[O-])cc1
inactive: [7] 104 % of control | [8] 100 % of control | [9] 103 % of control

OC(CBr)C(O)C(O)C(O)CBr (stereo not drawn)
inactive: [1] 110 % of control | dose: 20.0 mg/kg/injection, schedule: Q01DX009 (ip), vehicle: saline with Tween-80 107 % of control | [2] 107 % of control | dose: 25.9 mg/kg/injection, schedule: Q01DX009 (ip), vehicle: saline with Tween-80 109 % of control | dose: 40.0 mg/kg/injection, schedule: Q01DX009 (ip), vehicle: saline with Tween-80 100 % of control | dose: 43.2 mg/kg/injection, schedule: Q01DX009 (ip), vehicle: saline with Tween-80 105 % of control | [3] 120 % of control and 107 % of control | dose: 72.0 mg/kg/injection, schedule: Q01DX009 (ip), vehicle: saline with Tween-80 116 % of control | dose: 80.0 mg/kg/injection, schedule: Q01DX009 (ip), vehicle: saline with Tween-80 108 % of control | [8] 103 % of control and 120 % of control | dose: 100.0 mg/kg/injection, schedule: Q01DX009 (ip), vehicle: saline 107 % of control | dose: 120.0 mg/kg/injection, schedule: Q01DX009 (ip), vehicle: saline with Tween-80 101 % of control | dose: 160.0 mg/kg/injection, schedule: Q01DX009 (ip), vehicle: saline with Tween-80 115 % of control | [9] 113 % of control and 114 % of control | dose: 200.0 mg/kg/injection, schedule: Q01DX009 (ip), vehicle: saline 117 % of control and 110 % of control | dose: 300.0 mg/kg/injection, schedule: Q01DX009 (ip), vehicle: saline with Tween-80 82 % of control | dose: 555.8 mg/kg/injection, schedule: Q01DX009 (ip), vehicle: saline with Tween-80 55 % of control | dose: 800.0 mg/kg/injection, schedule: Q01DX009 (ip), vehicle: saline with Tween-80 112 % of control

C/C=C1\C[C@@H]2C(OC)Nc3cc(O)c(OC)cc3C(=O)N2C1 (stereo partly drawn)
inactive: dose: 0.03 mg/kg/injection, schedule: Q01DX009 (ip), vehicle: saline 100 % of control | dose: 0.06 mg/kg/injection, schedule: Q01DX009 (ip), vehicle: saline 112 % of control | dose: 0.12 mg/kg/injection, schedule: Q01DX009 (ip), vehicle: saline 115 % of control | dose: 0.12 mg/kg/injection, schedule: Q01DX009 (ip), vehicle: suspension in saline 105 % of control | dose: 0.25 mg/kg/injection, schedule: Q01DX009 (ip), vehicle: saline 112 % of control | dose: 0.25 mg/kg/injection, schedule: Q01DX009 (ip), vehicle: suspension in saline 96 % of control | dose: 0.5 mg/kg/injection, schedule: Q01DX009 (ip), vehicle: saline 115 % of control | dose: 0.5 mg/kg/injection, schedule: Q01DX009 (ip), vehicle: suspension in saline 96 % of control

CCOC(=O)C(Cc1ccc(Cl)c(Cl)c1)(Cc1ccc(Cl)c(Cl)c1)C(=O)OCC
inactive: [10] 99 % of control | [11] 97 % of control | [7] 94 % of control

CCOC(CNC(=O)OCc1ccccc1)OCC
inactive: [4] 93 % of control | [5] 93 % of control | [6] 90 % of control

O=C(O)C(c1ccccc1)C1CCCC1 (stereo not drawn)
inactive: [10] 109 % of control | [11] 111 % of control | [7] 94 % of control and 106 % of control
